Results taken from PubChem BioAssay (NCI).
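48-hour exposure; five concentrations; linearly interpolated endpoints. GI50 is the concentration that inhibits growth by half. TGI: concentration producing complete growth inhibition.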

How the values were obtained:
Assay in all cases: NCI-60 cell line screen, 48 h
[1] = test system: CAKI-1 renal
[2] = test system: SNB-19 CNS
[3] = test system: K-562 leukemia
[4] = test system: HOP-92 NSCLC
[5] = test system: SK-OV-3 ovarian
[6] = test system: UO-31 renal
[7] = test system: SNB-75 CNS
[8] = test system: SK-MEL-28 melanoma
[9] = test system: HT29 colon
[10] = test system: EKVX NSCLC

| SMILES | TGI [1] | TGI [2] | TGI [3] | TGI [4] | TGI [5] | TGI [6] | TGI [7] | TGI [8] | TGI [9] | TGI [10] | GI50 [1] | GI50 [2] | GI50 [3] | GI50 [4] | GI50 [5] | GI50 [6] | GI50 [7] | GI50 [8] | GI50 [9] | GI50 [10] |
| --- | --- | --- | --- | --- | --- | --- | --- | --- | --- | --- | --- | --- | --- | --- | --- | --- | --- | --- | --- | --- |
| O=C(Nc1ccc(Cl)cc1)C1C(=O)C(=O)N(c2ccc(Cl)cc2)C1=O (configuration not stated) | > 100 µM | > 100 µM | > 100 µM | 69.3 µM | > 100 µM | > 100 µM | > 100 µM | > 100 µM | > 100 µM | > 100 µM |  |  |  |  |  |  |  |  |  |  |
| CC(C)(C)c1cc([N+](=O)[O-])cc([N+](=O)[O-])c1O | > 10 µM | > 10 µM | > 10 µM | > 10 µM | > 10 µM | > 10 µM | > 10 µM | > 10 µM | > 10 µM | > 10 µM |  |  |  |  |  |  |  |  |  |  |
| Cc1ccc(C2=C(c3ccc(C)cc3)C3(c4ccc(C)cc4)C4C(=O)OC(=O)C4C2(c2ccc(C)cc2)S3=O)cc1 (configuration not stated) | > 100 µM | > 100 µM | > 100 µM | 89.8 µM | 98.7 µM | > 100 µM | 36.8 µM | 96.1 µM | > 100 µM | > 100 µM | 26.3 µM | 20.9 µM | 27.7 µM | 25.3 µM | 26.8 µM | 34.3 µM | 15.3 µM | 28.8 µM | 25.3 µM | 42 µM |
| O=C(Nc1cccc(O)c1)C(=O)C1C(=O)NC(=S)NC1=O | > 100 µM | > 100 µM | > 100 µM | > 100 µM | > 100 µM | > 100 µM | > 100 µM | > 100 µM | > 100 µM | > 100 µM |  |  |  |  |  |  |  |  |  |  |
| Cc1ccc(S(=O)(=O)OC2CC=CC2)cc1 | > 100 µM | > 100 µM | > 100 µM | > 100 µM | > 100 µM | > 100 µM | > 100 µM | > 100 µM | > 100 µM | > 100 µM |  |  |  |  |  |  |  |  |  |  |
| Cn1c(Cl)c(/C=C2/C(=O)Nc3ccccc32)c2ccccc21 | 17.9 µM | 29.9 µM | > 100 µM | > 100 µM | 10.5 µM | 44.7 µM | 23 µM | 19.7 µM | > 100 µM | 7.52 µM | 0.603 µM | 0.935 µM | 0.0601 µM | 13.4 µM | 0.732 µM | 3.39 µM | 3.28 µM | 1.08 µM | 0.144 µM |  |
| O=C1C=C(Nc2ccccc2C(=O)CC(=O)C(=O)Nc2cccc([N+](=O)[O-])c2)c2ccccc2C1=O | > 100 µM | > 100 µM | > 100 µM | > 100 µM | > 100 µM | > 100 µM | > 100 µM | > 100 µM | > 100 µM | > 100 µM |  |  |  |  |  |  |  |  |  |  |
| Cc1cn(-c2cc(NC(=O)c3cccc(C#Cc4cccc5[nH]nc(N)c45)c3)cc(C(F)(F)F)c2)cn1 | 16.6 µM | 32.7 µM | > 100 µM | 9.75 µM | > 100 µM | 26.5 µM | 9.02 µM | 25.7 µM | 17.7 µM | > 100 µM | 4.23 µM | 8.14 µM |  | 2.67 µM | 22.2 µM | 2.79 µM | 2.19 µM | 2.62 µM | 2.55 µM | 7.38 µM |
| COc1ccc2c(c1)OC1=C(C(=O)OC1)C2c1cc(OC)c2c(c1)OCCO2 (configuration not stated) | > 100 µM | > 100 µM | > 100 µM | > 100 µM | 7.33 µM | > 100 µM | > 100 µM | > 100 µM |  | > 100 µM | 0.0411 µM | 0.0697 µM | 0.0432 µM | 0.0629 µM | 0.0716 µM | 0.071 µM | 0.0346 µM | 0.0517 µM | 0.0366 µM | 0.0682 µM |
